Residues, ends and D or L forms follow the SMILES beside them.

The series is described as follows: Transdermal penetration through ex vivo mouse skin in a single-chamber diffusion cell, content by BCA kit. It counts as in vitro ADME, Kunming mice. Particulars: collagen peptide 5 mg/ml in 0.9% NaCl, diffusion area 2.0 cm^2, 37.5° C. How it is done: 1. Preparation of Mouse Skin Ex Vivo 10 Kunming mice of 20 to 22 g with half male and half […] were used in the experiment. After the mice were killed, the hairs on the abdomen were removed. Then the skin on the hair-removed area was peeled off, stripped of fat and tendons, and rinsed repeatedly with distilled water. After being washed, the mouse skins were rinsed with normal saline, then treated with 10% glycerol, and stored at −20° C. for use (use up within 7 days).
Single-chamber diffusion cell: The effective diffusion area of the diffusion cell is 2.0 cm^2, the volume of the receiving cell is 14 ml, the length of the custom-made stirrer is 1.4 cm, and the receiving solution is 0.9% NaCl solution.
The stored mouse skin was taken out, thawed, washed with normal saline, and sandwiched between the receiving chamber and the supplying chamber, with the medicated side facing the supplying chamber and the skin side facing the receiving chamber. The temperature of the water bath system was adjusted to 37.5° C., and the stirring speed was adjusted to 100 rpm/min. 0.9% NaCl solution pre-warmed at 37° C. was added to the receiving chamber and the air bubbles were exhausted, in order to reduce the interference, the inner surface of the mouse skin was firstly contacted with the receiving solution without medication and all the receiving solution was replaced. Then the 27 collagen peptides synthesized were prepared into 5 mg/ml solutions using 0.9% NaCl respectively, which were injected into the supplying chamber and firmly adhere to the mouse skin respectively. After 24 h, part of the receiving solution was absorbed with a syringe as the sample solution to determine the transdermal amount of collagen peptide.
The BCA kit method was used to determine the polypeptide content in the sample solution. […]

In turn, `CC(C)[C@H](NC(=O)[C@H](C)NC(=O)CNC(=O)[C@@H]1CCCN1C(=O)[C@@H]1CCCN1C(=O)CNC(=O)[C@@H]1CCCN1C(=O)[C@@H](NC(=O)CNC(=O)[C@H](CCCNC(=N)N)NC(=O)[C@H](CCC(=O)O)NC(=O)CNC(=O)[C@H](C)NC(=O)[C@H](CCCCN)NC(=O)CNC(=O)[C@@H]1CCCN1C(=O)[C@H](CCC(=O)O)NC(=O)CNC(=O)[C@H](C)NC(=O)[C@H](C)NC(=O)CNC(=O)[C@H](CCCCN)NC(=O)[C@@H]1CCCN1C(=O)CNC(=O)[C@@H]1CCCN1C(=O)[C@H](Cc1ccccc1)NC(=O)CN)C(C)C)C(=O)NCC(=O)N1CCC[C@H]1C(=O)N[C@@H](C)C(=O)NCC(=O)N[C@@H](CCCCN)C(=O)N[C@@H](CC(=O)O)C(=O)NCC(=O)N[C@@H](CCC(=O)O)C(=O)N[C@@H](C)C(=O)O` [compound 11] (H-GFPGPKGAAGEPGKAGERGVPGPPGAVGPAGKDGEA-OH; N-terminus and C-terminus assumed) had a 24h penetration amount of 2576.34 µg.

Regarding `CC(C)[C@H](NC(=O)[C@H](C)NC(=O)CNC(=O)[C@@H]1CCCN1C(=O)[C@@H]1CCCN1C(=O)CNC(=O)[C@@H]1CCCN1C(=O)[C@@H](NC(=O)CNC(=O)[C@H](CCCNC(=N)N)NC(=O)[C@H](CCC(=O)O)NC(=O)CN)C(C)C)C(=O)NCC(=O)N1CCC[C@H]1C(=O)N[C@@H](C)C(=O)NCC(=O)N[C@@H](CCCCN)C(=O)N[C@@H](CC(=O)O)C(=O)NCC(=O)N[C@@H](CCC(=O)O)C(=O)N[C@@H](C)C(=O)NCC(=O)N[C@@H](C)C(=O)N[C@@H](CCC(N)=O)C(=O)NCC(=O)N1CCC[C@H]1C(=O)N1CCC[C@H]1C(=O)NCC(=O)N1CCC[C@H]1C(=O)N[C@@H](C)C(=O)NCC(=O)N1CCC[C@H]1C(=O)N[C@@H](C)C(=O)NCC(=O)N[C@@H](CCC(=O)O)C(=O)N[C@@H](CCCNC(=N)N)C(=O)O` [compound 12] (H-GERGVPGPPGAVGPAGKDGEAGAQGPPGPAGPAGER-OH; N-terminus and C-terminus assumed), the 24h penetration amount was determined as 2613.34 µg. Under `CC(C)C[C@H](NC(=O)[C@H](CC(=O)O)NC(=O)CNC(=O)[C@@H]1CCCN1C(=O)[C@@H](NC(=O)CNC(=O)[C@H](CCC(N)=O)NC(=O)[C@H](CCC(=O)O)NC(=O)CNC(=O)[C@@H]1CCCN1C(=O)[C@H](CCCCN)NC(=O)CNC(=O)[C@H](C)NC(=O)[C@H](CCC(=O)O)NC(=O)CNC(=O)[C@@H]1CCCN1C(=O)[C@@H]1CCCN1C(=O)CNC(=O)[C@H](C)NC(=O)[C@@H]1CCCN1C(=O)CNC(=O)[C@@H]1CCCN1C(=O)[C@H](CC(C)C)NC(=O)CN)C(C)C)C(=O)NCC(=O)N[C@@H](C)C(=O)N1CCC[C@H]1C(=O)NCC(=O)N1CCC[C@H]1C(=O)N[C@@H](CO)C(=O)NCC(=O)N[C@@H](C)C(=O)N[C@@H](CCCNC(=N)N)C(=O)NCC(=O)N[C@@H](CCC(=O)O)C(=O)N[C@@H](CCCNC(=N)N)C(=O)O` [compound 13] (H-GLPGPAGPPGEAGKPGEQGVPGDLGAPGPSGARGER-OH; N-terminus and C-terminus assumed) stands 2098.04 µg; under `CC(C)C[C@H](NC(=O)[C@H](CC(=O)O)NC(=O)CNC(=O)[C@@H]1CCCN1C(=O)[C@@H](NC(=O)CN)C(C)C)C(=O)NCC(=O)N[C@@H](C)C(=O)N1CCC[C@H]1C(=O)NCC(=O)N1CCC[C@H]1C(=O)N[C@@H](CO)C(=O)NCC(=O)N[C@@H](C)C(=O)N[C@@H](CCCNC(=N)N)C(=O)NCC(=O)N[C@@H](CCC(=O)O)C(=O)N[C@@H](CCCNC(=N)N)C(=O)NCC(=O)N[C@@H](Cc1ccccc1)C(=O)N1CCC[C@H]1C(=O)NCC(=O)N[C@@H](CCC(=O)O)C(=O)N[C@@H](CCCNC(=N)N)C(=O)NCC(=O)N[C@H](C(=O)N[C@@H](CCC(N)=O)C(=O)NCC(=O)N1CCC[C@H]1C(=O)N1CCC[C@H]1C(=O)NCC(=O)N1CCC[C@H]1C(=O)N[C@@H](C)C(=O)NCC(=O)N1CCC[C@H]1C(=O)N[C@@H](CCCNC(=N)N)C(=O)O)C(C)C` [compound 14] (H-GVPGDLGAPGPSGARGERGFPGERGVQGPPGPAGPR-OH; N-terminus and C-terminus assumed), 2045.62 µg. Turning to `CC(C)[C@H](NC(=O)CNC(=O)[C@H](CCCNC(=N)N)NC(=O)[C@H](CCC(=O)O)NC(=O)CN)C(=O)N[C@@H](CCC(N)=O)C(=O)NCC(=O)N1CCC[C@H]1C(=O)N1CCC[C@H]1C(=O)NCC(=O)N1CCC[C@H]1C(=O)N[C@@H](C)C(=O)NCC(=O)N1CCC[C@H]1C(=O)N[C@@H](CCCNC(=N)N)C(=O)NCC(=O)N[C@@H](C)C(=O)N[C@@H](CC(N)=O)C(=O)NCC(=O)N[C@@H](C)C(=O)N1CCC[C@H]1C(=O)NCC(=O)N[C@@H](CC(N)=O)C(=O)N[C@@H](CC(=O)O)C(=O)NCC(=O)N[C@@H](C)C(=O)N[C@@H](CCCCN)C(=O)NCC(=O)N[C@@H](CC(=O)O)C(=O)N[C@@H](C)C(=O)NCC(=O)N[C@@H](C)C(=O)N1CCC[C@H]1C(=O)NCC(=O)N[C@@H](C)C(=O)N1CCC[C@H]1C(=O)O` [compound 15] (H-GERGVQGPPGPAGPRGANGAPGNDGAKGDAGAPGAP-OH; N-terminus and C-terminus assumed), the 24h penetration amount was determined as 2111.23 µg.

In turn, `CSCC[C@H](NC(=O)CNC(=O)[C@H](CCC(N)=O)NC(=O)[C@H](CC(C)C)NC(=O)CNC(=O)[C@@H]1CCCN1C(=O)[C@H](C)NC(=O)CNC(=O)[C@H](CCC(N)=O)NC(=O)[C@H](CO)NC(=O)CNC(=O)[C@@H]1CCCN1C(=O)[C@H](C)NC(=O)CNC(=O)[C@@H]1CCCN1C(=O)[C@H](C)NC(=O)CNC(=O)[C@H](C)NC(=O)[C@H](CC(=O)O)NC(=O)CNC(=O)[C@H](CCCCN)NC(=O)[C@H](C)NC(=O)CNC(=O)[C@H](CC(=O)O)NC(=O)[C@H](CC(N)=O)NC(=O)CNC(=O)[C@@H]1CCCN1C(=O)[C@H](C)NC(=O)CNC(=O)[C@H](CC(N)=O)NC(=O)[C@H](C)NC(=O)CN)C(=O)N1CCC[C@H]1C(=O)NCC(=O)N[C@@H](CCC(=O)O)C(=O)N[C@@H](CCCNC(=N)N)C(=O)O` [compound 16] (H-GANGAPGNDGAKGDAGAPGAPGSQGAPGLQGMPGER-OH; N-terminus and C-terminus assumed) showed a 24h penetration amount of 2034.34 µg.

In turn, `CSCC[C@H](NC(=O)CNC(=O)[C@H](CCC(N)=O)NC(=O)[C@H](CC(C)C)NC(=O)CNC(=O)[C@@H]1CCCN1C(=O)[C@H](C)NC(=O)CNC(=O)[C@H](CCC(N)=O)NC(=O)[C@H](CO)NC(=O)CNC(=O)[C@@H]1CCCN1C(=O)[C@H](C)NC(=O)CNC(=O)[C@@H]1CCCN1C(=O)[C@H](C)NC(=O)CN)C(=O)N1CCC[C@H]1C(=O)NCC(=O)N[C@@H](CCC(=O)O)C(=O)N[C@@H](CCCNC(=N)N)C(=O)NCC(=O)N[C@@H](C)C(=O)N[C@@H](C)C(=O)NCC(=O)N[C@@H](CC(C)C)C(=O)N1CCC[C@H]1C(=O)NCC(=O)N1CCC[C@H]1C(=O)N[C@@H](CCCCN)C(=O)NCC(=O)N[C@@H](CC(=O)O)C(=O)N[C@@H](CCCNC(=N)N)C(=O)NCC(=O)N[C@@H](CC(=O)O)C(=O)N[C@@H](C)C(=O)O` [compound 17] (H-GAPGAPGSQGAPGLQGMPGERGAAGLPGPKGDRGDA-OH; N-terminus and C-terminus assumed) displayed a 24h penetration amount of 2998.75 µg. As for `CC(C)C[C@H](NC(=O)CNC(=O)[C@H](CCCNC(=N)N)NC(=O)[C@@H](NC(=O)CNC(=O)[C@H](CC(=O)O)NC(=O)[C@H](CCCCN)NC(=O)CNC(=O)[C@@H]1CCCN1C(=O)[C@H](CO)NC(=O)CNC(=O)[C@H](CC(=O)O)NC(=O)[C@H](C)NC(=O)CNC(=O)[C@H](CCCCN)NC(=O)[C@@H]1CCCN1C(=O)CNC(=O)[C@H](C)NC(=O)[C@H](CC(=O)O)NC(=O)CNC(=O)[C@H](CCCNC(=N)N)NC(=O)[C@H](CC(=O)O)NC(=O)CNC(=O)[C@H](CCCCN)NC(=O)[C@@H]1CCCN1C(=O)CNC(=O)[C@@H]1CCCN1C(=O)[C@H](CC(C)C)NC(=O)CNC(=O)[C@H](C)NC(=O)[C@H](C)NC(=O)CNC(=O)[C@H](CCCNC(=N)N)NC(=O)[C@H](CCC(=O)O)NC(=O)CN)C(C)C)C(=O)N[C@H](C(=O)O)[C@@H](C)O` [compound 18] (H-GERGAAGLPGPKGDRGDAGPKGADGSPGKDGVRGLT-OH; N-terminus and C-terminus assumed), the 24h penetration amount came out at 2309.24 µg.

`CC[C@H](C)[C@H](NC(=O)CNC(=O)[C@H](CCC(N)=O)NC(=O)[C@@H]1CCCN1C(=O)CNC(=O)[C@@H]1CCCN1C(=O)[C@@H](NC(=O)CNC(=O)[C@@H]1CCCN1C(=O)[C@H](C)NC(=O)CNC(=O)[C@H](C)NC(=O)[C@@H]1CCCN1C(=O)CNC(=O)[C@H](CC(=O)O)NC(=O)[C@H](C)NC(=O)CNC(=O)[C@@H]1CCCN1C(=O)[C@H](CO)NC(=O)CN)[C@@H](C)O)C(=O)N[C@@H](C)C(=O)NCC(=O)N[C@@H](CCC(N)=O)C(=O)N[C@@H](CCCNC(=N)N)C(=O)NCC(=O)N[C@H](C(=O)N[C@H](C(=O)NCC(=O)N[C@@H](CC(C)C)C(=O)N1CCC[C@H]1C(=O)NCC(=O)N[C@@H](CCC(N)=O)C(=O)N[C@@H](CCCNC(=N)N)C(=O)NCC(=O)N[C@@H](CCC(=O)O)C(=O)N[C@@H](CCCNC(=N)N)C(=O)O)C(C)C)C(C)C` [compound 19] (H-GSPGADGPAGAPGTPGPQGIAGQRGVVGLPGQRGER-OH; N-terminus and C-terminus assumed) displayed a 24h penetration amount of 2432.23 µg.
